According to ChEMBL document CHEMBL1255553, “Unusual antimalarial meroditerpenes from tropical red macroalgae” (Bioorg Med Chem Lett, 2010):
≈ marks a conversion by molar mass, not a printed value.

Experiments:
Plasmodium falciparum = experiment: Antimalarial activity against Plasmodium falciparum; assay type: functional, organism-based
Staphylococcus aureus = experiment: Antimicrobial activity against methicillin-resistant Staphylococcus aureus; assay type: functional
Enterococcus faecium = experiment: Antimicrobial activity against vancomycin-resistant Enterococcus faecium; assay type: functional
Candida albicans = experiment: Antimicrobial activity against amphotericin B-resistant Candida albicans; assay type: functional
CCRF-CEM = experiment: Anticancer activity against human CCRF-CEM cells; assay type: functional, cell-based
SHP77 = experiment: Anticancer activity against human SHP77 cells; assay type: functional, cell-based

| Structure (SMILES) | IC50 (Plasmodium falciparum) [µM] | MIC (Staphylococcus aureus) [µM] | MIC (Enterococcus faecium) [µM] | MIC (Candida albicans) [µM] | MIC (Plasmodium falciparum) [µM] | IC50 (CCRF-CEM) [µM] | IC50 (SHP77) [µM] |
| --- | --- | --- | --- | --- | --- | --- | --- |
| CC1=C2Cc3cc(ccc3O)C(=O)O[C@H](C(C)(C)Br)CC[C@](C)(O)[C@H](Br)CC[C@]2(C)[C@@H](Br)CC1 | 0.7 | 5.9 (≈ 3.93 µg/mL) | 5.9 (≈ 3.93 µg/mL) | 49 (≈ 32.6 µg/mL) |  |  |  |
| CC1=C2Cc3cc(ccc3O)C(=O)O[C@H](C(C)(C)O)CC[C@]3(C)O[C@H]3C/C=C(\C)C2CC1 (some centres not stated) | > 100 |  |  | > 500 |  |  |  |
| Cc1cc(O)c(C)c(CC[C@](C)(O)CCC[C@H](C)CCC[C@H](C)CCCC(C)C)c1O | 190 | > 500 | > 500 |  |  |  |  |
| Cc1cc(O)cc(CC[C@](C)(O)CCC[C@H](C)CCC[C@H](C)CCCC(C)C)c1O |  | > 500 | > 500 |  | 220 (≈ 92.5 µg/mL) |  |  |
| CC1=CC(=O)C=C(CC[C@](C)(O)CCC[C@H](C)CCC[C@H](C)CCCC(C)C)C1=O | 10 | > 500 | > 500 | > 500 |  |  |  |
| CC(C)=CCC[C@@](C)(O)[C@@H]1CC/C(C)=C/CC/C(C)=C/Cc2cc(ccc2O)C(=O)O1 [CALLOPHYCOLIDE A] | 5.2 | 9.1 (≈ 3.88 µg/mL) | 9.1 (≈ 3.88 µg/mL) | > 250 |  | 7.5 | 9.2 |
